Data as given in PubChem BioAssay AID248 (DTP/NCI, 2004).
“And” between values parts separate entries of the source, which are not always exact repeats. Equal entries are not always repeated. Toxic doses and inconclusive results are not listed. Cut-off read from the data, not from the text of the source: active = T/C of 150% or more; inactive = T/C below 125%.

System: L1210 leukemia ip in BDF1 mice, survival T/C
Assay: NCI In Vivo Anticancer Drug Screen. Data for tumor model L1210 Leukemia (intraperitoneal) in B6D2F1 (BDF1) mice
Details: endpoint: mean survival time, higher = longer survival
Method in brief: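 Tumor cells were implanted, animals were treated, and survival was followed. The result divides the treated measurement by the vehicle-control measurement.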

[1] = dose: 100.0 mg/kg/injection, schedule: Q01DX009 (ip), vehicle: saline
[2] = dose: 200.0 mg/kg/injection, schedule: Q01DX009 (ip), vehicle: saline
[3] = dose: 100.0 mg/kg/injection, schedule: Q01DX009 (ip), vehicle: Klucel (hydroxypropylcellulose) (HPC)
[4] = dose: 200.0 mg/kg/injection, schedule: Q01DX009 (ip), vehicle: Klucel (hydroxypropylcellulose) (HPC)
[5] = dose: 400.0 mg/kg/injection, schedule: Q01DX009 (ip), vehicle: Klucel (hydroxypropylcellulose) (HPC)
[6] = dose: 100.0 mg/kg/injection, schedule: Q04DX003 (ip), vehicle: saline with Tween-80
[7] = dose: 100.0 mg/kg/injection, schedule: Q01DX001 (ip), vehicle: Klucel (hydroxypropylcellulose) (HPC)
[8] = dose: 200.0 mg/kg/injection, schedule: Q01DX001 (ip), vehicle: Klucel (hydroxypropylcellulose) (HPC)
[9] = dose: 400.0 mg/kg/injection, schedule: Q01DX001 (ip), vehicle: Klucel (hydroxypropylcellulose) (HPC)

Measured: T/C

NC(N)=N/N=C/c1cc([N+](=O)[O-])ccc1O
inactive: dose: 15.0 mg/kg/injection, schedule: Q01DX Z (ip), vehicle: saline 120 % of control | dose: 30.0 mg/kg/injection, schedule: Q01DX Z (ip), vehicle: saline 98 % of control | dose: 60.0 mg/kg/injection, schedule: Q01DX Z (ip), vehicle: saline 98 % of control | dose: 60.0 mg/kg/injection, schedule: Q01DX Z (oral), vehicle: saline 100 % of control | dose: 120.0 mg/kg/injection, schedule: Q01DX Z (ip), vehicle: saline 96 % of control | dose: 120.0 mg/kg/injection, schedule: Q01DX Z (oral), vehicle: saline 96 % of control

O=C(NC1CCCCC1)Oc1ccc(Cl)cc1Cl
inactive: dose: 100.0 mg/kg/injection, schedule: Q04DX002 (ip), vehicle: Klucel (hydroxypropylcellulose) (HPC) 93 % of control | dose: 200.0 mg/kg/injection, schedule: Q04DX002 (ip), vehicle: Klucel (hydroxypropylcellulose) (HPC) 96 % of control | dose: 400.0 mg/kg/injection, schedule: Q04DX002 (ip), vehicle: Klucel (hydroxypropylcellulose) (HPC) 93 % of control

O=S(=O)(O)CNc1ccccc1
inactive: [1] 93 % of control | [2] 93 % of control | dose: 400.0 mg/kg/injection, schedule: Q01DX009 (ip), vehicle: saline 95 % of control

Fc1ccc(NC2(c3nnnn3C3CCCCC3)CCNCC2)cc1
inactive: dose: 6.25 mg/kg/injection, schedule: Q01DX001 (ip), vehicle: saline with Tween-80 102 % of control | dose: 12.5 mg/kg/injection, schedule: Q01DX001 (ip), vehicle: saline with Tween-80 100 % of control | dose: 25.0 mg/kg/injection, schedule: Q01DX001 (ip), vehicle: saline with Tween-80 98 % of control

c1ccc([C](c2ccccc2)(c2ccccc2)[Ge]([c]2ccccc2)([c]2ccccc2)[c]2ccccc2)cc1
inactive: dose: 12.8 mg/kg/injection, schedule: Q04DX002 (ip), vehicle: saline with Tween-80 93 % of control | dose: 32.0 mg/kg/injection, schedule: Q04DX002 (ip), vehicle: saline with Tween-80 96 % of control | dose: 80.0 mg/kg/injection, schedule: Q04DX002 (ip), vehicle: saline with Tween-80 89 % of control | dose: 200.0 mg/kg/injection, schedule: Q04DX002 (ip), vehicle: saline with Tween-80 89 % of control

CC1=CCCC(C)(C)C1/C=C/C(=O)O (stereo not drawn)
inactive: [3] 105 % of control | [4] 97 % of control | [5] 101 % of control

CCCCCCNC(C)=O
inactive: dose: 12.5 mg/kg/injection, schedule: Q01DX009 (ip), vehicle: saline 92 % of control | dose: 25.0 mg/kg/injection, schedule: Q01DX009 (ip), vehicle: saline 118 % of control | dose: 50.0 mg/kg/injection, schedule: Q01DX009 (ip), vehicle: saline 97 % of control and 90 % of control | [1] 90 % of control | [6] 95 % of control | [2] 97 % of control | dose: 200.0 mg/kg/injection, schedule: Q04DX003 (ip), vehicle: saline with Tween-80 87 % of control

COc1ccc(/C(Cc2ccccc2)=N\N=C(N)N)cc1
inactive: dose: 15.0 mg/kg/injection, schedule: Q01DX Z (ip), vehicle: carboxymethylcellulose (CMC) 97 % of control | dose: 30.0 mg/kg/injection, schedule: Q01DX Z (ip), vehicle: carboxymethylcellulose (CMC) 97 % of control | dose: 60.0 mg/kg/injection, schedule: Q01DX Z (ip), vehicle: carboxymethylcellulose (CMC) 97 % of control | dose: 120.0 mg/kg/injection, schedule: Q01DX Z (ip), vehicle: carboxymethylcellulose (CMC) 101 % of control | dose: 240.0 mg/kg/injection, schedule: Q01DX Z (oral), vehicle: carboxymethylcellulose (CMC) 108 % of control | dose: 480.0 mg/kg/injection, schedule: Q01DX Z (oral), vehicle: carboxymethylcellulose (CMC) 104 % of control | dose: 960.0 mg/kg/injection, schedule: Q01DX Z (oral), vehicle: carboxymethylcellulose (CMC) 88 % of control

C=C(C)CNC(N)=S
inactive: dose: 75.0 mg/kg/injection, schedule: Q04DX003 (ip), vehicle: Klucel (hydroxypropylcellulose) (HPC) 98 % of control | [7] 105 % of control | dose: 150.0 mg/kg/injection, schedule: Q04DX003 (ip), vehicle: Klucel (hydroxypropylcellulose) (HPC) 89 % of control | [8] 98 % of control | dose: 300.0 mg/kg/injection, schedule: Q04DX003 (ip), vehicle: Klucel (hydroxypropylcellulose) (HPC) 110 % of control | [9] 105 % of control

CCOc1cc(C=Nc2cc(Br)c(O)c(Br)c2)ccc1N(CCCl)CCCl
inactive: dose: 13.3 mg/kg/injection, schedule: Q01DX009 (ip), vehicle: carboxymethylcellulose (CMC) 108 % of control | dose: 20.0 mg/kg/injection, schedule: Q01DX009 (ip), vehicle: carboxymethylcellulose (CMC) 100 % of control | dose: 30.0 mg/kg/injection, schedule: Q01DX009 (ip), vehicle: carboxymethylcellulose (CMC) 97 % of control | dose: 44.0 mg/kg/injection, schedule: Q01DX001 (ip), vehicle: carboxymethylcellulose (CMC) 123 % of control | dose: 100.0 mg/kg/injection, schedule: Q01DX001 (ip), vehicle: carboxymethylcellulose (CMC) 123 % of control | dose: 150.0 mg/kg/injection, schedule: Q01DX001 (ip), vehicle: carboxymethylcellulose (CMC) 122 % of control

CC(=O)N(C)C
inactive: dose: 62.5 mg/kg/injection, schedule: Q01DX010 (ip), vehicle: saline 94 % of control and 97 % of control | dose: 125.0 mg/kg/injection, schedule: Q01DX010 (ip), vehicle: saline 105 % of control and 91 % of control | dose: 250.0 mg/kg/injection, schedule: Q01DX010 (ip), vehicle: saline 103 % of control and 91 % of control | dose: 500.0 mg/kg/injection, schedule: Q01DX001 (ip), vehicle: saline 101 % of control | dose: 500.0 mg/kg/injection, schedule: Q01DX010 (ip), vehicle: saline 100 % of control and 89 % of control | dose: 900.0 mg/kg/injection, schedule: Q01DX Z (ip), vehicle: other 106 % of control | dose: 1000.0 mg/kg/injection, schedule: Q01DX001 (ip), vehicle: saline 100 % of control | dose: 2000.0 mg/kg/injection, schedule: Q01DX001 (ip), vehicle: saline 97 % of control | dose: 3000.0 mg/kg/injection, schedule: Q01DX Z (ip), vehicle: other 87 % of control

Cc1cc(O)cc(=O)o1
inactive: [3] 97 % of control and 89 % of control | dose: 100.0 mg/kg/injection, schedule: Q04DX003 (ip), vehicle: Klucel (hydroxypropylcellulose) (HPC) 101 % of control and 86 % of control | [4] 95 % of control and 100 % of control | dose: 200.0 mg/kg/injection, schedule: Q04DX003 (ip), vehicle: Klucel (hydroxypropylcellulose) (HPC) 101 % of control and 103 % of control | [5] 94 % of control and 100 % of control | dose: 400.0 mg/kg/injection, schedule: Q04DX003 (ip), vehicle: Klucel (hydroxypropylcellulose) (HPC) 92 % of control and 102 % of control

COc1cc(/C=C\C(=O)c2ccccc2)c([N+](=O)[O-])cc1OC
inactive: dose: 100.0 mg/kg/injection, schedule: Q01DX001 (ip), vehicle: water 90 % of control | dose: 200.0 mg/kg/injection, schedule: Q01DX001 (ip), vehicle: water 88 % of control | dose: 400.0 mg/kg/injection, schedule: Q01DX001 (ip), vehicle: water 90 % of control

Cc1ccc([N+](=O)[O-])c(P(=O)(O)O)c1
inactive: [6] 100 % of control

C/C=C/c1ccccc1C(C)=O
inactive: dose: 100.0 mg/kg/injection, schedule: Q04DX003 (sc), vehicle: olive oil, sesame oil, peanut oil 105 % of control | dose: 200.0 mg/kg/injection, schedule: Q04DX003 (sc), vehicle: olive oil, sesame oil, peanut oil 105 % of control | dose: 400.0 mg/kg/injection, schedule: Q04DX003 (sc), vehicle: olive oil, sesame oil, peanut oil 100 % of control

CC1(C)C2CC3C=CCCC3(C2)C1Br (stereo not drawn)
inactive: [7] 103 % of control | [8] 92 % of control | [9] 100 % of control
